We go through 29 molecules from patent US8829007B2 (priority 2009, dated 2014).

Assay [1] has as its system A/PR/8/34 influenza virus. The experiment in a line: microbe, parasite or virus in culture. In kind it is cell-based.
Assay [2] has as its system influenza A virus (A/PR/8/34). Put plainly: microbe, parasite or virus in culture. In kind it is cell-based.
[3] abbreviates: Influenza A virus, PR/8, MDCK, MDCK cells infected with A/PR/8/34, replication of influenza virus (viral RNA, bDNA), class symbols, read-out: EC50 (mean all).
The mark [4] stands for this setting: Influenza A virus, PR/8, MDCK, MDCK cells infected with A/PR/8/34, survival of infected cells, class symbols, read-out: IC50 (mean all).
[5] abbreviates: Influenza A virus, PR/8, MDCK, mean all, A/PR/8/34 influenza virus in MDCK cells, bDNA assay, read-out: EC50.
Where [6] appears, read: Influenza A virus, PR/8, MDCK, mean all, A/PR/8/34 infected MDCK cells, CPE assay, read-out: IC50.
The mark [7] stands for this setting: mean all, bDNA viral RNA in MDCK cells infected with A/PR/8/34, read-out: EC50.
The mark [8] stands for this setting: mean all, MDCK cells infected with A/PR/8/34, cell protection (CPE), read-out: IC50.
Where [9] appears, read: Influenza A virus, PR/8, MDCK, read-out: EC50 (mean all).
The mark [10] stands for this setting: Influenza A virus, PR/8, MDCK, read-out: IC50 (mean all).
[11] abbreviates: Influenza A virus, PR/8, MDCK, MDCK cells infected with A/PR/8/34, bDNA viral RNA, read-out: EC50 (mean all).
[12] abbreviates: Influenza A virus, PR/8, MDCK, MDCK cells infected with A/PR/8/34, cell protection (CPE), read-out: IC50 (mean all).

Where a name gives a salt, the structure may show the parent alone. Read-outs that look alike come from different tables or passages of the source.

For `O=S(=O)(C1CC1)N1CCOCC1CNc1nc(-c2c[nH]c3ncc(Cl)cc23)ncc1F` (stereo not shown) [Compound 533, 2-(5-chloro-1H-pyrrolo[2,3-b]pyridin-3-yl)-N-((4-(cyclopropylsulfonyl)morpholin-3-yl)methyl)-5-fluoropyrimidin-4-amine], the EC50 in assay [1] (setting [3]) is under 5 µM. Further, in assay [2] (setting [4]), the concentration for half-maximal inhibition (IC50) lay in the range of 5 to 20 µM.
Regarding `CCCNC(=O)N1CCC[C@H](Nc2nc(-c3c[nH]c4ncc(Cl)cc34)ncc2F)C1` [Compound 324], the EC50 in assay [1] (setting [5]) is under 5 µM. Also, the IC50 in assay [2] (setting [6]) is 5 to 20 µM.
As for `COC(=O)N1CCOCC1CNc1nc(-c2c[nH]c3ncc(Cl)cc23)ncc1F` (stereo not shown) [Compound 526, Methyl 3-((2-(5-chloro-1H-pyrrolo[2,3-b]pyridin-3-yl)-5-fluoropyrimidin-4-ylamino)methyl)morpholine-4-carboxylate], the EC50 in assay [1] (setting [3]) was under 5 µM. Moreover, in assay [2] (setting [4]), the concentration for half-maximal inhibition (IC50) fell in the range of 5 to 20 µM.
On to `CC(=O)N[C@H]1CCCC[C@@H]1Nc1nc(-c2c[nH]c3ncc(Cl)cc23)ncc1F` [Compound 433, N-[(1s, 2S)-2-[[2-(5-chloro-1H-pyrrolo[2,3-b]pyridin-3-yl)-5-fluoro-pyrimidin-4-yl]amino]cyclohexyl]acetamide], for which, in assay [1] (setting [5]), the half-maximal effective concentration (EC50) is under 5 µM. Besides, the IC50 in assay [2] (setting [6]) is under 5 µM.
In the case of `O=C(O)[C@H]1[C@@H]2CC[C@@H](C2)[C@@H]1Nc1nc(-c2c[nH]c3ncc(Cl)cc23)ncc1F` (racemic) [Compound 946], the EC50 in assay [1] (Influenza A virus, PR/8, mean all, replication of A/PR/8/34 influenza virus (bDNA assay), read-out: EC50) is under 5 µM. The concentration for half-maximal inhibition (IC50) in assay [2] (Influenza A virus, PR/8, MDCK, mean all, survival of A/PR/8/34 infected MDCK cells (CPE assay), read-out: IC50) is under 5 µM.
For `O=C1NCCCC[C@@H]1Nc1nc(-c2c[nH]c3ncc(Cl)cc23)ncc1F` [Compound 417], the EC50 in assay [1] (setting [5]) is under 5 µM. Besides, the IC50 in assay [2] (setting [6]) is under 5 µM.
Regarding `CCN1CCC[C@H](Nc2nc(-c3c[nH]c4ncc(Cl)cc34)ncc2F)C1=O` [Compound 460], the concentration giving a half-maximal response (EC50) in assay [1] (setting [5]) is under 5 µM. The IC50 in assay [2] (setting [6]) is under 5 µM.
On to `CC(C)(C)C(=O)NC1CCCC(Nc2nc(-c3c[nH]c4ncc(Cl)cc34)ncc2F)C1` (stereo not shown) [Compound 723], for which the concentration giving a half-maximal response (EC50) in assay [1] (setting [7]) was under 5 µM. The half-inhibitory concentration (IC50) in assay [2] (setting [8]) was under 5 µM.
For `CS(=O)(=O)N1CCOCC1CNc1nc(-c2c[nH]c3ncc(Cl)cc23)ncc1F` (stereo not shown) [Compound 532, 2-(5-chloro-1H-pyrrolo[2,3-b]pyridin-3-yl)-5-fluoro-N-((4-(methylsulfonyl)morpholin-3-yl)methyl)pyrimidin-4-amine], in assay [1] (setting [3]), the EC50 is under 5 µM. In addition, the IC50 in assay [2] (setting [4]) was 5 to 20 µM.
In the case of `O=C(N[C@@H]1CCC[C@H](Nc2nc(-c3c[nH]c4ncc(Cl)cc34)ncc2F)C1)C1CCNCC1` [Compound 639, N-[(1R,3S)-3-[[2-(5-chloro-1H-pyrrolo[2,3-b]pyridin-3-yl)-5-fluoro-pyrimidin-4-yl]amino]cyclohexyl]piperidine-4-carboxamide bishydrochloride], the EC50 in assay [1] (setting [9]) is over 3.3 µM. In addition, the IC50 in assay [2] (setting [10]) was over 10 µM.
For the molecule `C=CCCC(=O)N1CCCC[C@@H]1CNc1nc(-c2c[nH]c3ncc(Cl)cc23)ncc1F` [Compound 279, (R)-1-(2-((2-(5-chloro-1H-pyrrolo[2,3-b]pyridin-3-yl)-5-fluoropyrimidin-4-ylamino)methyl)piperidin-1-yl)pent-4-en-1-one], the EC50 in assay [1] (setting [11]) was under 5 µM. Moreover, the 50% inhibitory concentration (IC50) in assay [2] (setting [12]) is under 5 µM.
Take `COC(=O)N[C@H]1CCCC[C@@H]1Nc1nc(-c2c[nH]c3ncc(Cl)cc23)ncc1F` [Compound 425, Methyl N-[(1S,2S)-2-[[2-(5-chloro-1H-pyrrolo[2,3-b]pyridin-3-yl)-5-fluoro-pyrimidin-4-yl]amino]cyclohexyl]carbamate]: the EC50 in assay [1] (setting [5]) is under 5 µM. The 50% inhibitory concentration (IC50) in assay [2] (setting [6]) is under 5 µM.
As for `O=C(O)[C@@H]1CCCC[C@@H]1Nc1nc(-c2c[nH]c3ncc(Cl)cc23)ncc1F` [Compound 578, (1R,2S)-2-(2-(5-chloro-1H-pyrrolo[2,3-b]pyridin-3-yl)-5-fluoropyrimidin-4-ylamino)cyclohexanecarboxylic acid], in assay [1] (setting [3]), the EC50 was under 5 µM. The IC50 in assay [2] (setting [4]) is under 5 µM.
For the molecule `O=C(OCCF)N1CCC[C@H](CNc2nc(-c3c[nH]c4ncc(Cl)cc34)ncc2F)C1` [Compound 126, (R)-2-fluoroethyl 3-((2-(5-chloro-1H-pyrrolo[2,3-b]pyridin-3-yl)-5-fluoropyrimidin-4-ylamino)methyl)piperidine-1-carboxylate], in assay [1] (setting [11]), the half-maximal effective concentration (EC50) was under 5 µM. Moreover, in assay [2] (setting [12]), the 50% inhibitory concentration (IC50) was under 5 µM.
Turning to `CC(C)NC(=O)N1CCOCC1CNc1nc(-c2c[nH]c3ncc(Cl)cc23)ncc1F` (stereo not shown) [Compound 536, 3-((2-(5-chloro-1H-pyrrolo[2,3-b]pyridin-3-yl)-5-fluoropyrimidin-4-ylamino)methyl)-N-isopropylmorpholine-4-carboxamide], the 50% effective concentration (EC50) in assay [1] (setting [3]) was over 10 µM. The IC50 in assay [2] (setting [4]) was in the range of 5 to 20 µM.
As to `CCOC(=O)C(=O)N(C(=O)OC(C)(C)C)C1CC2CC(C(=O)OC)C1C2` (stereo not shown) [Compound 721], the EC50 in assay [1] (setting [7]) is under 5 µM. Moreover, the IC50 in assay [2] (setting [8]) was under 5 µM.
For the molecule `CC(C)NC(=O)N1CCC[C@H](Nc2nc(-c3c[nH]c4ncc(Cl)cc34)ncc2F)C1` [Compound 439], the EC50 in assay [1] (setting [5]) is under 5 µM. Moreover, the IC50 in assay [2] (setting [6]) was under 5 µM.
Consider `COCC(O)CN1CCCC(Nc2nc(-c3c[nH]c4ncc(Cl)cc34)ncc2F)C1` [Compound 537, 1-((S)-3-((2-(5-chloro-1H-pyrrolo[2,3-b]pyridin-3-yl)-5-fluoropyrimidin-4-ylamino)piperidin-1-yl)-3-methoxypropan-2-ol], for which, in assay [1] (setting [3]), the concentration for a half-maximal effect (EC50) is under 5 µM. In assay [2] (setting [4]), the IC50 was under 5 µM.
Consider `COCC(=O)NC1CCCC(Nc2nc(-c3c[nH]c4ncc(F)cc34)ncc2F)C1` (stereo not shown) [Compound 703], for which the 50% effective concentration (EC50) in assay [1] (setting [7]) is under 5 µM. Also, the IC50 in assay [2] (setting [8]) was under 5 µM.
With `NC(=O)CN1CCCC(Nc2nc(-c3c[nH]c4ncc(F)cc34)ncc2F)C1` (stereo not shown) [Compound 613], the concentration giving a half-maximal response (EC50) in assay [1] (bDNA assay, A/PR/8/34 influenza virus replication in MDCK cells, class symbols, read-out: EC50 (mean all)) is under 5 µM. Also, in assay [2] (CPE assay, A/PR/8/34 infected MDCK cells, class symbols, read-out: IC50 (mean all)), the 50% inhibitory concentration (IC50) is under 5 µM.
As for `CC(C)COC(=O)N1CCC[C@@H](CNc2nc(-c3c[nH]c4ncc(Cl)cc34)ncc2F)C1` [Compound 28, (S)-isobutyl 3-((2-(5-chloro-1H-pyrrolo[2,3-b]pyridin-3-yl)-5-fluoropyrimidin-4-ylamino)methyl)piperidine-1-carboxylate], in assay [1] (setting [11]), the EC50 was under 5 µM. In assay [2] (setting [12]), the concentration for half-maximal inhibition (IC50) is over 20 µM.
Turning to `CC(=O)N[C@H]1CCC[C@@H](Nc2nc(-c3c[nH]c4ncc(Cl)cc34)ncc2F)C1` (relative stereo) [Compound 452, N-[cis-3-[[2-(5-chloro-1H-pyrrolo[2,3-b]pyridin-3-yl)-5-fluoropyrimidin-4-yl]amino]cyclohexyl]acetamide], in assay [1] (setting [5]), the half-maximal effective concentration (EC50) is under 5 µM. Also, the concentration for half-maximal inhibition (IC50) in assay [2] (setting [6]) was under 5 µM.
For `CC(C)=CC(=O)N1CCC[C@H](CNc2nc(-c3c[nH]c4ncc(Cl)cc34)ncc2F)C1` [Compound 57, (R)-1-(3-((2-(5-chloro-1H-pyrrolo[2,3-b]pyridin-3-yl)-5-fluoropyrimidin-4-ylamino)methyl)piperidin-1-yl)-3-methylbut-2-en-1-one], the EC50 in assay [1] (setting [9]) was under 5 µM. Moreover, in assay [2] (setting [10]), the concentration for half-maximal inhibition (IC50) is under 5 µM.
`CCOC(=O)CNC(=O)N1CCC[C@@H](CNc2nc(-c3c[nH]c4ncc(Cl)cc34)ncc2F)C1` [Compound 25, (S)-ethyl 2-(3-((2-(5-chloro-1H-pyrrolo[2,3-b]pyridin-3-yl)-5-fluoropyrimidin-4-ylamino)methyl)piperidine-1-carboxamido)ethanoate]: in assay [1] (setting [11]), the concentration for a half-maximal effect (EC50) was under 5 µM. Further, in assay [2] (setting [12]), the IC50 is under 5 µM.
`COC(=O)NC1CCCC(Nc2nc(-c3c[nH]c4ncc(Cl)cc34)nc(C(C)(C)O)c2F)C1` (stereo not shown) [Compound 716]: the 50% effective concentration (EC50) in assay [1] (setting [7]) is under 5 µM. Also, the IC50 in assay [2] (setting [8]) was under 5 µM.
Regarding `CCS(=O)(=O)N1CCCC[C@@H]1CNc1nc(-c2c[nH]c3ncc(Cl)cc23)ncc1F` [Compound 382, (R)-2-(5-chloro-1H-pyrrolo[2,3-b]pyridin-3-yl)-5-fluoro-N-((1-(ethylsulfonyl)-piperidin-2-yl)methyl)pyrimidin-4-amine], the EC50 in assay [1] (setting [5]) is under 5 µM. In addition, in assay [2] (setting [6]), the half-maximal inhibitory concentration (IC50) was under 5 µM.
Turning to `CCN1CCCC[C@H](Nc2nc(-c3c[nH]c4ncc(Cl)cc34)ncc2F)C1=O` [Compound 462], the EC50 in assay [1] (setting [5]) is under 5 µM. In addition, the IC50 in assay [2] (setting [6]) lay in the range of 5 to 20 µM.
As to `CC[C@@]1(C(=O)O)CCCC[C@H]1Nc1nc(-c2c[nH]c3ncc(Cl)cc23)ncc1F` (relative stereo) [Compound 586, trans-2-(2-(5-chloro-1H-pyrrolo[2,3-b]pyridin-3-yl)-5-fluoropyrimidin-4-ylamino)-1-ethylcyclohexanecarboxylic acid], the concentration giving a half-maximal response (EC50) in assay [1] ([…], replication of influenza virus (viral RNA, bDNA), class symbols, read-out: EC50 (mean all)) is under 5 µM. Further, in assay [2] (read-out: IC50 (mean all)), the IC50 is under 5 µM.
Turning to `COCCNC(=O)[C@@H]1CCC[C@H](Nc2nc(-c3c[nH]c4ncc(Cl)cc34)ncc2F)C1` [Compound 789], the EC50 in assay [1] (mean all, A/PR/8/34 influenza virus replication, bDNA, read-out: EC50) was under 5 µM. For the same molecule, in assay [2] (read-out: IC50), the IC50 is under 5 µM.

What is called EC50 is the midpoint of the concentration-response curve. One may read the IC50 as the midpoint of a concentration-inhibition curve.
